These are literature values, as cited in patent publication US9102697B2, “Trioxacarcins and uses thereof” (President and Fellows of Harvard College, priority 2010, dated 2015).

For one data set, the system named is murine models. To be noted: cited from earlier work.
The subject of the next data set is gram-positive. To be noted: cited from earlier work.
In another data set the test system is LXFL 529L. The conditions noted are these: lung cancer cell line LXFL 529L; cited from earlier work.
Another data set concerns H-460. The conditions noted are these: lung cancer cell line H-460; cited from earlier work.
A further data set concerns MCF-7. To be noted: mammary cancer cell line MCF-7; cited from earlier work.
Another data set concerns SF-268. To be noted: CNS cancer cell line SF-268; cited from earlier work.
The subject of data set [1] is self-complementary DNA 12-mer d(AATTACGTAATT) (SEQ ID NO: 1). The conditions noted are these: epoxide opening by N7 of the central guanine residue; cited from earlier work.

Regarding `COc1c2c(c(O)c3c4c(c(C)cc13)C1OC3(C(OC)OC)OC1C(O[C@H]1C[C@@H](O)[C@@](O)(C(C)=O)[C@H](C)O1)(O4)C3(O)CO)C(=O)C(O)CC2O[C@H]1C[C@@](C)(O)[C@H](OC(C)=O)[C@H](C)O1` (some centres unmarked) [Trioxacarcin B], the anti-tumor activity entry in the data set with murine models is listed as “anti-tumor activity”. The antibiotic activity result with gram-positive was “gram-positive antibiotic activity”.
On to Trioxacarcin A, for which the IC70 entry in the data set with LXFL 529L, in the data set on H-460, with MCF-7 and in the data set with SF-268 was “subnanmolar” each time. Also, the anti-tumor activity entry in the data set with murine models was “anti-tumor activity”. In the data set on gram-positive, the antibiotic activity result is given as “gram-positive antibiotic activity”. Further, the “reaction with the oligonucleotide” value in data set [1] is on record as “form a covalent complex”.
Consider `COc1c2c(c(O)c3c4c(c(C)cc13)C1OC3(C(OC)OC)OC1C(OC1CC(O)C(O)(C(C)O)C(C)O1)(O4)C31CO1)C(=O)C(O)CC2OC1COC(C)(OC(C)=O)C(C)(O)C1` (centres unmarked) [Trioxacarcin C], for which the anti-tumor activity entry in the data set with murine models is “anti-tumor activity”. Further, the antibiotic activity entry in the data set on gram-positive is reported as “gram-positive antibiotic activity”.
